The target of one data set is Collagenase 3 (Homo sapiens, UniProt P45452). The data set can be described thus: Inhibition of Matrix metalloprotease-13.
Another data set addresses T1, Interstitial collagenase (Homo sapiens, UniProt P03956).
T1 sequence (P03956 whole entry): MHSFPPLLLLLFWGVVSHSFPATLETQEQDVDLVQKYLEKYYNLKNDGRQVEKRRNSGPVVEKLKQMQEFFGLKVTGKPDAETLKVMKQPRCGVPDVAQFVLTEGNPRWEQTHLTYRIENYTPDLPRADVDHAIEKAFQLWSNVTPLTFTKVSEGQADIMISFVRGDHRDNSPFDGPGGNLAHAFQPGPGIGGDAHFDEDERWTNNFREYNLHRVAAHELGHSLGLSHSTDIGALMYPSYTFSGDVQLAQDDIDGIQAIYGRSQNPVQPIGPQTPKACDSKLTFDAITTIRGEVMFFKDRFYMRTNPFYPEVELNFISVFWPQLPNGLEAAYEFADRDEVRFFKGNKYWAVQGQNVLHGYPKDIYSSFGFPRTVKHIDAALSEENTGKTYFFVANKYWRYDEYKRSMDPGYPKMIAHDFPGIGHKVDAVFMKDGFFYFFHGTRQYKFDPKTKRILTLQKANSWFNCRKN
The data set is described as follows: Inhibition of Matrix metalloprotease-1.

The target of data set [1] is Matrix metalloproteinase (1 and 13) (Homo sapiens) (UniProt P45452+P03956). The data set is described as follows: Selectivity for Matrix metalloprotease-1 over Matrix metalloprotease-13. Format: protein assay.
Data set [2] in a line: Maximum plasma concentration dosed orally in rats. Format: ADME, organism-based. Details: route oral. The note with it: rat, po.
The nature of data set [3]: Maximum plasma concentration dosed orally in rats after 6 hours. Details: route oral. The note with it: rat, po. Format: ADME, organism-based.

Structures are written as SMILES. pIC50: −log10 of the molar value.

For the molecule `CC(C)(C)OC(=O)N[C@H](CS(=O)(=O)c1ccc(Sc2ccccc2)cc1)C(=O)NO`, the pIC50 is 8.40 against Collagenase 3 and below 5.00 on Interstitial collagenase. Besides, in data set [1], the Selectivity is above 2500.
As for `CN(Cc1ccccc1)[C@H](CS(=O)(=O)c1ccc(Oc2ccccc2)cc1)C(=O)NO`, the Selectivity in data set [1] came to 2400.
Still for that read-out and setting: the result for `COc1ccc(S(=O)(=O)CC(NC(=O)CNC(=O)OCc2ccccc2)C(=O)NO)cc1` (centres undefined) reads above 40; that for `CN(C(=O)OC(C)(C)C)[C@H](CS(=O)(=O)c1ccc(Oc2ccccc2)cc1)C(=O)NO`, 5300.
On the same count and under the same terms, the same measure for `CC(=O)NC(CS(=O)(=O)c1ccc(Sc2ccccc2)cc1)C(=O)NO` (centres undefined): above 1700.
For `O=C(N[C@H](CS(=O)(=O)c1ccc(Sc2ccccc2)cc1)C(=O)NO)OCc1ccccc1`, the pIC50 against Collagenase 3 is 9.40; against Interstitial collagenase it was 5.10. Further, in data set [1], the Selectivity was 20000.
`CN[C@H](CS(=O)(=O)c1ccc(Oc2ccccc2)cc1)C(=O)NO`: the figures for the Cmax in data set [2] and in data set [3] were 6660 ng/mL and 49 ng/mL, respectively. The pIC50 at Collagenase 3 is 9.40; at Interstitial collagenase, 6.36. The Selectivity in data set [1] is 1100.
The like results for `CC(=O)N(C)[C@H](CS(=O)(=O)c1ccc(Oc2ccccc2)cc1)C(=O)NO` were, in that order, 2450 ng/mL, 60 ng/mL, 9.70, 7.05 and 450.
Regarding `CC(C)(C)OC(=O)N[C@H](CS(=O)(=O)c1ccc(Oc2ccccc2)cc1)C(=O)NO`, in data set [2], the Cmax was below 200 ng/mL. Further, the results for the pIC50 against Collagenase 3 and on Interstitial collagenase were 9.52 and 6.30, respectively. For the same molecule, in data set [1], the Selectivity was found to be 1600.
Take `O=C(NC(CS(=O)(=O)c1ccc(Sc2ccccc2)cc1)C(=O)NO)OCc1ccccc1` (centres undefined): the Selectivity in data set [1] was above 2700.
In data set [1], `O=C(CNC(=O)OCc1ccccc1)NC(CS(=O)(=O)c1ccc(Sc2ccccc2)cc1)C(=O)NO` (centres undefined) had a Selectivity above 12000.
Consider `Cc1ccc(S(=O)(=O)NC(CS(=O)(=O)c2ccc(Oc3ccccc3)cc2)C(=O)NO)cc1` (centres undefined), for which, in data set [1], the Selectivity amounted to 670.
Take `O=C(N[C@H](CS(=O)(=O)c1ccc(Oc2ccccc2)cc1)C(=O)NO)c1ccncc1`: the maximum concentration (Cmax) in data set [2] was below 200 ng/mL. Further, the pIC50 on Collagenase 3 is 9.10; at Interstitial collagenase, 6.05. Also, the Selectivity in data set [1] came to 1100.
`CC(=O)N[C@H](CS(=O)(=O)c1ccc(Sc2ccccc2)cc1)C(=O)NO`: the results for the negative-log IC50 (pIC50) on Collagenase 3 and against Interstitial collagenase were 8.54 and 5.00, respectively. The Selectivity in data set [1] amounted to 3400.
The molecule `Cc1ccc(S(=O)(=O)NC(CS(=O)(=O)c2ccc(Sc3ccccc3)cc2)C(=O)NO)cc1` (centres undefined) showed a Selectivity in data set [1] of 1500.
`COc1cccc(OC)c1C(=O)N[C@H](CS(=O)(=O)c1ccc(Oc2ccccc2)cc1)C(=O)NO` came in with a Cmax in data set [2] below 200 ng/mL. Besides, the pIC50 on Collagenase 3 is 9.40; at Interstitial collagenase, 6.46. Further, the Selectivity in data set [1] is 870.
For the molecule `CC(=O)NC(CS(=O)(=O)c1ccc(Oc2ccccc2)cc1)C(=O)NO` (centres undefined), the figures for the pIC50 at Collagenase 3 and at Interstitial collagenase were 8.96 and 6.11, respectively. This molecule also returned a Selectivity in data set [1] of 700.
`COc1ccc(S(=O)(=O)CC(N)C(=O)NO)cc1` (centres undefined) had a Selectivity in data set [1] of 17.
Same read-out and setting: the same measure for `COc1ccc(S(=O)(=O)CC(NC(C)=O)C(=O)NO)cc1` (centres undefined): 20.
As for `COc1ccc(S(=O)(=O)CC(NC(=O)OC(C)(C)C)C(=O)NO)cc1` (centres undefined), the pIC50 at Collagenase 3 was 7.82; at Interstitial collagenase, 5.82. The molecule also yielded a Selectivity in data set [1] of 100.
On the same counts, the results for `O=C(NC(CS(=O)(=O)c1ccc(Oc2ccccc2)cc1)C(=O)NO)OCc1ccccc1` (centres undefined) are 8.96, 5.85 and 1300.
`CN(C(=O)Cc1ccncc1)[C@H](CS(=O)(=O)c1ccc(Oc2ccccc2)cc1)C(=O)NO`: the concentration in data set [2] peaked (Cmax) at 710 ng/mL. The molecule also gave a pIC50 at Collagenase 3 of 8.70. In data set [1], this molecule yielded a Selectivity of 130.
For the molecule `NC(CS(=O)(=O)c1ccc(Sc2ccccc2)cc1)C(=O)NO` (centres undefined), the Selectivity in data set [1] turned out to be 420.

For orientation: pIC50 means −log10 of the IC50, conventionally taken in molar units. The term Cmax denotes the maximum level reached in the sampled fluid or tissue.

For the origin of these results see ChEMBL document CHEMBL1134425, “alpha-Amino-beta-sulphone hydroxamates as potent MMP-13 inhibitors that spare MMP-1” (Bioorg Med Chem Lett, 2001).
